Measured values: publication PMC12587545, “Noncytotoxic polymyxin derivatives enhance antibiotic action against multidrug-resistant Gram-negative bacteria” (Antimicrobial Agents and Chemotherapy, 2025)
Positions of bridges follow the written chain, without caps; N, C: chain ends. Non-standard residues stand in square brackets, D forms with d. Residues, ends and D or L forms follow the SMILES beside them. *: point of attachment. Octanoyl = CCCCCCCC(=O)*; Dab = NCC[C@H](N)C(=O)O; Dap = NC[C@H](N)C(=O)O

What was measured:
SK-N-SH = assay: Cell viability assay (PrestoBlue); assay type: cell-based; settings: 24 h
Description: (§1) Kidney cell lines, HK-2 (CRL-2190) and RPTEC/TERT1 (CRL-4031), and neural cell lines, U-87 MG (HTB-14) and SK-N-SH (HTB-11), were obtained from American Type Culture Collection (ATCC). HK-2 cells were cultured in T75 flasks with keratinocyte serum-free medium supplemented with bovine pituitary extract, human epidermal growth factor, and 2.5% FBS. RPTEC/TERT1 cells were cultured in T75 flasks with Dulbecco’s modified Eagle’s medium:F12 supplemented with the ATCC (United States) human telomerase reverse transcriptase immortalized RPTEC growth kit, G418 (0.1 mg/mL final concentration), and 2% FBS. Both U-87 MG and SK-N-SH cells were cultured in minimal essential media supplemented with 10% FBS. The cells were incubated in a humidified atmosphere at 5% CO2 and at 37°C.
(§2) The cytotoxicity of the compounds toward the mammalian cell lines was assessed using the cell viability assay protocols as previously described ([29]). Designated wells in 96-well plates were seeded with HK-2 (5,000 cells), RPTEC/TERT1 (8,000 cells), U-87 MG (7,000 cells), or SK-N-SH (8,000 cells) in 50 µL. Blank wells received an identical volume of only media. […] Subsequently, PrestoBlue reagent (Invitrogen, United States) was added to the wells to a final concentration of 10% (vol/vol), and the plate was incubated for an additional 1 h. Fluorescence was measured with a SpectraMax M2 plate reader (Molecular Devices, United States), at excitation and emission wavelengths of 560 and 590 nm, respectively. Values from the blank wells were subtracted from the corresponding wells containing cells. The cell viability relative to the controls with vehicle was calculated and presented as mean ± standard deviation of at least two experiments with five replicates each. CC50 values were obtained using GraphPad Prism (version 10.4.1) by non-linear regression (four-parameter logistic fit).

U-87 MG = assay: Cell viability assay (PrestoBlue); assay type: cell-based; settings: 24 h
Description: as §1, §2

HK-2 = assay type: cell-based, human; settings: 48 h
Description: as §1
The cytotoxicity of the compounds toward the mammalian cell lines was assessed using the cell viability assay protocols as previously described ([29]). Designated wells in 96-well plates were seeded with HK-2 (5,000 cells), RPTEC/TERT1 (8,000 cells), U-87 MG (7,000 cells), or SK-N-SH (8,000 cells) in 50 µL. Blank wells received an identical volume of only media. After incubating the cells for 24 h, all wells were treated with varying concentrations of the compound and incubated for 48 h. Subsequently, PrestoBlue reagent (Invitrogen, United States) was added to the wells to a final concentration of 10% (vol/vol), and the plate was incubated for an additional 1 h. Fluorescence was measured with a SpectraMax M2 plate reader (Molecular Devices, United States), at excitation and emission wavelengths of 560 and 590 nm, respectively. Values from the blank wells were subtracted from the corresponding wells containing cells. The cell viability relative to the controls with vehicle was calculated and presented as mean ± standard deviation of at least two experiments with five replicates each. CC50 values were obtained using GraphPad Prism (version 10.4.1) by non-linear regression (four-parameter logistic fit).

P. aeruginosa = system: P. aeruginosa
Description: (§3) The bacterial isolates were acquired from ATCC or the Canadian Ward Surveillance (CANWARD) study ([56]). CANWARD isolates were collected from infected patients admitted to participating medical centers across Canada.
(§4) The antibiotic or compound was serially diluted 2-fold in CAMHB on a 96-well plate and was incubated with equal volumes of bacterial inoculum overnight at 37°C. Wells containing only media were used as negative controls, and wells containing only bacteria were used as positive controls. Antibacterial activity was measured by the MIC, or the lowest concentration of agent required to inhibit visible bacterial growth. Turbidity was confirmed with a Molecular Devices (United States) EMax Plus microplate reader at a wavelength of 590 nm.

K. pneumoniae = system: K. pneumoniae
Description: as §3, §4

- MIC (P. aeruginosa): >128 µg/mL
- MIC (K. pneumoniae): >128 µg/mL
Structure (SMILES): CCCCCCCC(=O)N[C@@H](CN)C(=O)N[C@H](C(=O)N[C@@H](CN)C(=O)N[C@H]1CCNC(=O)[C@H]([C@@H](C)O)NC(=O)[C@H](CN)NC(=O)[C@H](CN)NC(=O)[C@H](CC(C)C)NC(=O)[C@@H](Cc2ccccc2)NC(=O)[C@H](CN)NC1=O)[C@@H](C)O [Compound 1] (Octanoyl-[Dap]T[Dap][Dab][Dap][dF]L[Dap][Dap]T; lactam 4-C)
- cell viability (SK-N-SH): exceeding 100%
- cell viability (U-87 MG): exceeding 100%
- CC50 in HK-2 (HK-2): 238.7 µM
